{"source": "paper PMC4667271", "about": "“Discovery of a Novel Inhibitor of the Protein Tyrosine Phosphatase Shp2” (Scientific Reports, 2015)", "key": {"[1]": {"tested_on": "Src and Paxillin phosphorylation in MDA-MB-231 cells", "test": "Src, PLCγ1 and Paxillin phosphorylation, Western blot, MDA-MB-231", "type": "cell-based, human", "details": "10-40 μM 24 h, EGF", "source_text": "Figure 6 Fumos affects the phosphorylation of Src and Paxillin. […] DMSO treatment as control. Western blotting analysis for the expression of p-Src(Tyr416) p-Src (Tyr530), Src, p-PLCγ1, PLCγ1, p-Paxillin(Tyr118), p-Paxillin (Tyr31) and Paxillin. (b,c) Densitometric analysis of pSrc530/Src in the Western blots of Hela and MDA-MB-231, respectively. Bars represent mean ± S.E.M. values from three experiments, **p = 0.006 < 0.01/F = 8 vs EGF, one-way ANOVA followed by Tukey’s test.\nAfter centrifugation, the supernatant was collected."}, "[2]": {"biological_target": "TCPTP (Homo sapiens, UniProt P17706)", "sequence (P17706 5-275 limits assumed)": "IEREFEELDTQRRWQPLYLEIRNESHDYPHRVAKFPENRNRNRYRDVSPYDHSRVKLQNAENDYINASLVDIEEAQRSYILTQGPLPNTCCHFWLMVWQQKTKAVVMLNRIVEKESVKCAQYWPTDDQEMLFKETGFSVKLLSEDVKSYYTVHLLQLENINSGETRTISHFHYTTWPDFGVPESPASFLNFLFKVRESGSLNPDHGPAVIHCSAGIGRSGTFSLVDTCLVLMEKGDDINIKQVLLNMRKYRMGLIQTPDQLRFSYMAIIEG", "test": "in vitro PTP assay (pNPP), TCPTP", "type": "biochemical", "procedure": "(§1) Plasmids for expression of His-tag fusion proteins of human PTP were constructed in PET-28a by PCR subcloning techniques. The constructions contain only the PTP domain except Full-length Shp2. Full-length Shp2 containing Tyr279-to-Ala mutant was generated by PCR-based mutagenesis. All constructs were verified by DNA sequencing. PTP-His fusion proteins were expressed in Escherichia coli BL21 and lysed in the buffer (50 mM NaH2PO4, 300 mM NaCl, 250 mM imidazole, 1 mM dithiothreitol plus 5% glycerol), purified with Ni-NTA Magnetic Agarose Beads (Qiagen). The His-tag recombinant purification protocol was carried out according to the purification under native conditions of the QIAexpress System.\n(§2) The assay was set in wells of 96-well plate with a final volume of 100 μl of reaction mixture containing 10 mM of NaAc-HAc, 1 mM of ethylene diamine tetraacetic acid, 1 mM of DL-dithiothreitol and 2% of dimethyl sulfoxide, pH 5.5. Activity of the enzyme was assayed by incubating recombinant PTP protein or mutant PTP with various concentrations of Fumos in the mixture at 37 °C for 30 min. Absorbance at 405 nm was detected immediately after addition of varied concentrations of substrate, p-nitrophenyl phosphate (pNPP) to each corresponding well."}, "[3]": {"tested_on": "Gab1-Shp2 association in HEK293T cells", "test": "Gab1-Shp2 co-immunoprecipitation, HEK293T", "type": "cell-based, human", "procedure": "Figure 3 Fumos inhibits Gab1-Shp2 association. HEK293T cells were serum-starved for 18 h, preincubated with or without Fumos (20 μM 24 h), and then treated with EGF (20 ng/ml, 5 min). (a) Shp2 was immunoprecipitated from cell lysate supernatants. (b) Gab1 was immunoprecipitated from cell lysate supernatants. Immunoprecipitates were analyzed by immunoblotting with antibodies to Gab1, RasGAP, pY and Shp2. (c) Densitometric analysis of p-Gab1/Shp2 ratio in the Western blots. **p = 0.002 < 0.01/F = 37 vs EGF. (d) Densitometric analysis of RasGAP/Gab1 ratio in the Western blots. **p < 0.01/F = 30 vs EGF, one-way ANOVA followed by Tukey’s test. Bars represent mean ± S.E.M. values from three experiments.\nCells were washed with cold PBS twice and lysed in cell lysis buffer for 10 min on ice. Then the lytic cells were centrifugated with 13,000 g for 10 min at 4 °C. The supernatant was transferred to a fresh conical centrifuge tube on ice and added 1 μg of the appropriate control IgG, together with 20 μl of resuspended volume of Protein A/G PLUS-Agarose (Santa Cruz Biotechnology, CA), then incubated at 4 °C for 30 min. The pellet beads were centrifugated at 1,000 g for 5 min at 4 °C. The supernatant with approximately 100–500 μg total cellular protein was incubated with 2 μg primary antibody against Shp2 or Gab1 for 7 h at 4 °C. Then lysates containing protein-antibody complexes were incubated with 20 μl of Protein A/G PLUS-Agarose at 4 °C on a rotating device overnight. Immunoprecipitates were collected by centrifugation at 2,500 rpm and washed for 4 times with 1 ml lysis buffer, then suspended in the loading buffer, boiled, and analyzed by SDS-PAGE."}, "[4]": {"tested_on": "EGF-induced Ras activation in HeLa cells", "test": "Ras activation assay (GST-RBD pull-down), HeLa", "type": "cell-based, human", "details": "Fumos 20 μM", "procedure": "Active Ras was detected by use of the RBD of raf-1 fused to glutathione S-transferase (GST) as described previously. Cells were lysed in MLB buffer (25 mM Hepes, 150 mM NaCl, 1% Nonidet P-40, 0.25% sodium deoxycholate, 10% glycerol, 25 mM NaF, 1 mM Na3VO4, 10 mM MgCl2, 1 mM EDTA, pH 7.5) supplemented with complete EDTA-free protease inhibitor mixture. Total 500 μg cell lysate was incubated with 10–20 μg of GST-RBD bound beads(Merck) overnight at 4 °C. The beads were pelleted by centrifugation and washed three times with MLB buffer. The beads were boiled in SDS loading buffer and subjected to electrophoresis, followed by immunoblotting with an anti-Ras antibody (Santa Cruz Biotechnology)."}, "[5]": {"biological_target": "STEP (Homo sapiens, UniProt P54829)", "sequence (P54829 300-555 limits assumed)": "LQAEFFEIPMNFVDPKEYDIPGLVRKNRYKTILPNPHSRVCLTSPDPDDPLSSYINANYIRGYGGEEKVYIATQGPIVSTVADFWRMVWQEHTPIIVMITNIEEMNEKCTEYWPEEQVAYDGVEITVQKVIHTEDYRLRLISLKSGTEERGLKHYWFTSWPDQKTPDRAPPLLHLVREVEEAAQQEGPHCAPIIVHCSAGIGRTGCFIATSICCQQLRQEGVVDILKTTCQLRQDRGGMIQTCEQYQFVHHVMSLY", "test": "biochemical", "procedure": "as §1, §2"}, "[6]": {"biological_target": "PTPRA (Homo sapiens, UniProt P18433)", "sequence (P18433 241-501 limits assumed)": "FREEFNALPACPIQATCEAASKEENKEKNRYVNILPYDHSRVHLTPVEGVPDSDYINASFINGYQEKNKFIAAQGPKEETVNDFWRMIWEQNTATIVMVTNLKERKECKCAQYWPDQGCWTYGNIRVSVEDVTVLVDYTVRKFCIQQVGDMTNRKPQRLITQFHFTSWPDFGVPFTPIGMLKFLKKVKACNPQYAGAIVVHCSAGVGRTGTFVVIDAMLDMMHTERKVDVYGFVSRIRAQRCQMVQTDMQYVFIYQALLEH", "test": "biochemical", "procedure": "as §1, §2"}}, "data": [{"smiles": "CC[C@@H](C)C[C@@H](C)/C=C(C)/C=C/C=C/C=C(\\C)C(=O)c1c(O)c(-c2ccc(O)cc2)cn(O)c1=O", "note": "[Fumos, Fumosorinone]", "values": [{"measurement": "Src Tyr416 phosphorylation", "setting": "[1]", "value": "dose-dependent downregulation"}, {"measurement": "phosphorylated Tyr 530 of Src", "setting": "[1]", "value": "moderately increased"}, {"measurement": "phosphorylation of PLCγ1", "setting": "[1]", "value": "decreased"}, {"measurement": "phosphorylation of Paxillin at Tyr31", "setting": "[1]", "value": "peaked at low concentrations of Fumos and reduced at high concentrations"}, {"measurement": "phosphorylation of Paxillin at Tyr118", "setting": "[1]", "value": "decreased with the increasing concentrations"}, {"measurement": "IC50", "setting": "[2]; TCPTP PTP domain", "value": "29.7 ± 0.42", "unit": "µM"}, {"measurement": "IC50 selective", "setting": "[2]; TCPTP relative to Shp2 PTP domain", "value": "~5"}, {"measurement": "RasGAP coimmunoprecipitated with Gab1", "setting": "[3]; EGF-stimulated, Fumos 20 μM 24 h", "value": "dramatically increased"}, {"measurement": "EGF-stimulated Gab1-Shp2 association (Gab1 in Shp2 immunoprecipitates)", "setting": "[3]; Fumos 20 μM 24 h, EGF 20 ng/ml 5 min", "value": "much less Gab1 proteins were found"}, {"measurement": "Gab1-Shp2 association without EGF", "setting": "[3]; Fumos alone", "value": "induces Gab1-Shp2 association"}, {"measurement": "tyrosine-phosphorylation of Gab1", "setting": "[3]; Fumos alone, no EGF", "value": "increased"}, {"measurement": "EGF-induced endogenous Ras activation", "setting": "[4]", "value": "inhibited"}, {"measurement": "IC50", "setting": "[5]; STEP PTP domain", "value": "> 100", "unit": "µM"}, {"measurement": "IC50 selective", "setting": "[5]; STEP relative to Shp2 PTP domain", "value": ">16"}, {"measurement": "IC50", "setting": "[6]; PTPRA PTP domain", "value": "> 100", "unit": "µM"}, {"measurement": "IC50 selective", "setting": "[6]; PTPRA relative to Shp2 PTP domain", "value": ">16"}]}]}
